The values that follow are results of earlier work, collected in PMC5668067, “Phase I dose-escalation study of the c-Met tyrosine kinase inhibitor SAR125844 in Asian patients with advanced solid tumors, including patients with MET-amplified gastric cancer” (Oncotarget, 2017).

For series [1], the system named is MET-amplified gastroesophageal junction, gastric, or esophageal tumors. On the set-up: method as in ref 16 = [16]; 16 Kwak EL LoRusso P Hamid O Janku F Kittaneh M Catenacci DV Chan E Bekaii-Saab TS Amore B Hwang YC Tang R Ngarmchamnanrith G Hong DS Clinical activity of AMG 337, an oral MET kinase inhibitor, in adu. As to conditions: eight of 13 patients with MET-amplified tumors; cited from earlier work.

For series [2], the system named is gastric or gastroesophageal junction cancer. As to conditions: cited from earlier work.
For series [3], the system named is unselected gastric cancer patients. As to conditions: cited from earlier work.
In series [4] the test system is highly MET-amplified (MET:CEP7 >5) gastroesophageal cancers. On the set-up: method as in PMID 22042947. The settings on record: cited from earlier work.

Take `COCCOc1cnc2ccn([C@H](C)c3nnc4c(F)cc(-c5cnn(C)c5)cn34)c(=O)c2c1` [AMG 337]: in series [1], the “partial or near complete response” value is on record as 62%.

Consider onartuzumab: an anti-c-Met antibody, for which, in series [2] (regardless of c-Met expression), the “survival benefit of addition to chemotherapy” value is recorded as “no survival advantage”. Turning to `O=C1NC(=O)[C@@H](c2cn3c4c(cccc24)CCC3)[C@@H]1c1c[nH]c2ccccc12` [tivantinib], the objective responses result in series [3] was “no objective responses”.

As for `C[C@@H](Oc1cc(-c2cnn(C3CCNCC3)c2)cnc1N)c1c(Cl)ccc(F)c1Cl` [crizotinib], the “patients with tumor shrinkage” value in series [4] is on record as “two of four”. As for `COc1cc2c(Oc3ccc(NC(=O)C4(C(=O)Nc5ccc(F)cc5)CC4)cc3F)ccnc2cc1OCCCN1CCOCC1` [foretinib], in series [3], the objective responses entry was “no objective responses”. For rilotumumab: an anti-HGF antibody, the “clinical benefit combined with chemotherapy” value in series [2] (c-Met-positive gastric or gastroesophageal junction cancer) is “failed to show clinical benefit”.
